{"source": "patent US20060100257A1", "about": "“Inhibitors against the activation of ap-1 and nfat” (priority 2002, published 2006)", "key": {"[1]": {"test_system": "NFAT", "test": "Inhibition of NFAT activation (2) (NFAT Luc reporter, HepG2)", "format": "cell-based, human", "conditions": "HepG2, TPA (200 nM) and ionomycin (2 μM); for Inhibition Ratio of NFAT Activation(%) Drug Concentration 1 μg/mL: test compound 1 μg/mL; for Inhibition Ratio of NFAT Activation(%) Drug Concentration 1 μM: test compound 1 μM", "protocol": "Measurement of Inhibition of NFAT Activation (2)\nUsing a transfection reagent (Effectene; QIAGEN), the human hepatoma cell strain HepG2 was transfected with a plasmid (NFAT Luc) which was integrated with an NFAT binding sequence on a upstream region of the firefly luciferase gene (Luc) according to the QIAGEN's protocol, and the cells were incubated for 20 to 24 hours.\nAfter incubation of the cells in the presence or absence of a test compound for 4 hours, TPA (200 nM) and ionomycin (2 μM) were added and the cells were incubated for 20 to 24 hours.\nThen, intracellular luciferase activity was measured by using PicaGene LT(TOYO INK MFG Co., Ltd.) and a chemical luminescence measurement apparatus (SPECTRAFluor Plus; TECAN).\nThe inhibitory ratio was measured as a ratio relative to the value of the luciferase activity in the absence of the test compound."}, "[2]": {"test_system": "AP-1", "test": "Inhibition of AP-1 activation by forced expression of MEKK-1 (pAP-1-Luc reporter, HepG2)", "format": "cell-based, human", "conditions": "HepG2, MEKK-1 expression plasmid, 24 hours; for Inhibitory Ratio of AP-1 Activation(%) Drug Concentration 1 μg/mL: test compound 1 μg/mL; for Inhibitory Ratio of AP-1 Activation(%) Drug Concentration 1 μM: test compound 1 μM", "description": "Measurement of Inhibition of AP-1 Activation by Forced Expression of MEKK-1\nUsing a transfection reagent (Effectene; QIAGEN), the human hepatoma cell strain HepG2 was cotransfected with a plasmid (pAP-1-Luc Reporter Plasmid: STRATAGENE), integrated with an oligonucleotide having seven tandem copies of AP-1 binding sequences (TGACTAA) on an upstream region of the firefly luciferase gene (Luc), and the MEKK-1 expression plasmid (pFCMEKK: STRATAGENE) according to the QIAGEN's protocol, and the cells were incubated for 20 to 24 hours. Then, after the cells were incubated in the presence or absence of a test compound for 24 hours, intracellular luciferase activity was measured by using PicaGene LT(TOYO INK MFG Co., Ltd.) and a chemical luminescence measurement apparatus (SPECTRAFluor Plus; TECAN). The inhibitory ratio was measured as a ratio relative to the value of the luciferase activity in the absence of the test compound."}, "[3]": {"test_system": "AP-1", "test": "Inhibition of AP-1 activation by TNF α stimulation (pAP-1-Luc reporter, HeLa)", "format": "cell-based, human", "conditions": "TNF-α (40 ng/ml), 4 hours; for Inhibitory Ratio of AP-1 Activation(%) Drug Concentration 1 μg/mL: test compound 1 μg/mL; for Inhibitory Ratio of AP-1 Activation(%) Drug Concentration 10 μg/mL: test compound 10 μg/mL", "protocol": "Measurement of Inhibition of AP-1 Activation by TNF α Stimulation\nUsing a transfection reagent (Effectene; QIAGEN), the human uterine cancer cell strain HeLa was transfected with a plasmid (pAP-1-Luc Reporter Plasmid: STRATAGENE) according to the QIAGEN's protocol, which was integrated with an oligonucleotide having seven tandem copies of AP-1 binding sequences (TGACTAA) on a upstream region of firefly luciferase gene (Luc), and the cells were incubated for 6 to 24 hours. Then, the cells were added with TNF-α (40 ng/ml) in the presence or absence of a test compound and incubated for 4 hours, and intracellular luciferase activity was measured by using PicaGene LT(TOYO INK MFG Co., Ltd.) and chemical luminescence measurement apparatus(SPECTRAFluor Plus; TECAN). The inhibitory ratio was obtained as a ratio relative to the value of the luciferase activity in the absence of the test compound."}, "[4]": {"test_system": "NFAT", "test": "Inhibition of NFAT activation (1) (NFAT-LacZ reporter, Jurkat cell)", "format": "cell-based", "conditions": "A23187 and PMA, 4 hours", "protocol": "Measurement of Inhibition of NFAT Activation (1)\nA Jurkat cell transfected with a reporter plasmid (NFAT-LacZ), which was integrated with the NFAT binding sequence on a upstream region of the β-galactosidase gene (LacZ) according to the method described in the “Proceedings of The National Academy of Sciences of The United States of America” 1991, Vol. 88, No. 9, p. 3972-3976, was incubated for 4 hours in the Modified RPMI 1640 medium in the presence of A23187 as a calcium ionophore and PMA (Phorbol 12-myristate 13-acetate), and in the presence or absence of a test compound. Then, intracellular β-galactosidase activity was measured by the method described in the “Proceedings of The National Academy of Sciences of The United States of America” 1991, Vol. 88, No. 9, p. 3972-3976. The inhibitory ratio was obtained as a ratio relative to the value of the β-galactosidase activity in the absence of the test compound."}}}
{"compound": "CC(C)(C)c1nc(NC(=O)c2cc(Br)ccc2O)sc1N1CCN(c2ccccc2)CC1", "note": "[compound 201, 5-Bromo-N-{4-[(1,1-dimethyl)ethyl]-5-(4-phenylpiperazin-1-yl)thiazol-2-yl}-2-hydroxybenzamide]", "values": [{"measurement": "Inhibition Ratio of NFAT Activation(%) Drug Concentration 1 μg/mL", "setting": "[1]", "value": ">99.9", "unit": "%"}, {"measurement": "Inhibitory Ratio of AP-1 Activation(%) Drug Concentration 1 μg/mL", "setting": "[2]", "value": 79.1, "unit": "%"}]}
{"compound": "O=C(Nc1cc(C(F)(F)F)cc(C(F)(F)F)c1)c1cc(-n2cccc2)ccc1O", "note": "[Compound No. 71]", "values": [{"measurement": "Inhibition Ratio of NFAT Activation(%) Drug Concentration 1 μg/mL", "setting": "[1]", "value": ">99.9", "unit": "%"}, {"measurement": "Inhibitory Ratio of AP-1 Activation(%) Drug Concentration 1 μg/mL", "setting": "[2]", "value": 98.0, "unit": "%"}]}
{"compound": "O=C(Nc1cc(C(F)(F)F)cc(C(F)(F)F)c1)c1cc(-c2ccccc2)ccc1O", "note": "[Compound No. 67]", "values": [{"measurement": "Inhibition Ratio of NFAT Activation(%) Drug Concentration 1 μg/mL", "setting": "[1]", "value": ">99.9", "unit": "%"}, {"measurement": "Inhibitory Ratio of AP-1 Activation(%) Drug Concentration 1 μg/mL", "setting": "[2]", "value": 94.8, "unit": "%"}, {"measurement": "Inhibitory Ratio of AP-1 Activation(%) Drug Concentration 1 μg/mL", "setting": "[3]", "value": 18.1, "unit": "%"}, {"measurement": "Inhibitory Ratio of AP-1 Activation(%) Drug Concentration 10 μg/mL", "setting": "[3]", "value": 60.9, "unit": "%"}]}
{"compound": "CC(C)(C)C(=O)c1sc(NC(=O)c2cc(Cl)ccc2O)nc1C(C)(C)C", "note": "[compound 195, 5-Chloro-N-{4-[(1,1-dimethyl)ethyl]-5-[(2,2-dimethyl)propionyl]thiazol-2-yl}-2-hydroxybenzamide]", "values": [{"measurement": "Inhibition Ratio of NFAT Activation(%) Drug Concentration 1 μM", "setting": "[1]", "value": 96.8, "unit": "%"}, {"measurement": "Inhibition Ratio of NFAT Activation(%) Drug Concentration 1 μg/mL", "setting": "[1]", "value": 86.7, "unit": "%"}, {"measurement": "Inhibitory Ratio of AP-1 Activation(%) Drug Concentration 1 μM", "setting": "[2]", "value": 91.2, "unit": "%"}, {"measurement": "Inhibitory Ratio of AP-1 Activation(%) Drug Concentration 1 μg/mL", "setting": "[2]", "value": 95.5, "unit": "%"}]}
{"compound": "CC(C)(C)c1ccc(O)c(C(=O)Nc2cc(C(F)(F)F)cc(C(F)(F)F)c2)c1", "note": "[Compound No. 56, N-[3,5-Bis(trifluoromethyl)phenyl]-5-[(1,1-dimethyl)ethyl]-2-hydroxybenzamide]", "values": [{"measurement": "Inhibition Ratio of NFAT Activation(%) Drug Concentration 1 μM", "setting": "[1]", "value": 88.9, "unit": "%"}, {"measurement": "Inhibition Ratio of NFAT Activation(%) Drug Concentration 1 μg/mL", "setting": "[1]", "value": 99.7, "unit": "%"}, {"measurement": "Inhibitory Ratio of AP-1 Activation(%) Drug Concentration 1 μM", "setting": "[2]", "value": 82.6, "unit": "%"}, {"measurement": "Inhibitory Ratio of AP-1 Activation(%) Drug Concentration 1 μg/mL", "setting": "[2]", "value": 96.3, "unit": "%"}]}
{"compound": "CCOC(=O)c1sc(NC(=O)c2cc(-c3cccs3)ccc2O)nc1-c1ccccc1", "note": "[compound 223, 2-[2-Hydroxy-5-(2-thienyl)benzoyl]amino-4-phenylthiazole-5-carboxylic acid ethyl ester]", "values": [{"measurement": "Inhibitory Ratio of AP-1 Activation(%) Drug Concentration 10 μg/mL", "setting": "[3]", "value": 7.0, "unit": "%"}]}
{"compound": "CC(C)(C)c1nc(NC(=O)c2cc(Br)ccc2O)sc1N1CCOCC1", "note": "[compound 199, 5-Bromo-N-{4-[(1,1-dimethyl)ethyl]-5-morpholinothiazol-2-yl}-2-hydroxybenzamide]", "values": [{"measurement": "Inhibition Ratio of NFAT Activation(%) Drug Concentration 1 μg/mL", "setting": "[1]", "value": ">99.9", "unit": "%"}, {"measurement": "Inhibitory Ratio of AP-1 Activation(%) Drug Concentration 1 μg/mL", "setting": "[2]", "value": 70.6, "unit": "%"}]}
{"compound": "O=C(Nc1cc(C(F)(F)F)cc(C(F)(F)F)c1)c1cc(I)ccc1O", "note": "[Compound No. 52, N-[3,5-bis(trifluoromethyl)phenyl]-2-hydroxy-5-iodobenzamide]", "values": [{"measurement": "Inhibitory Ratio of AP-1 Activation(%) Drug Concentration 1 μg/mL", "setting": "[3]", "value": 25.4, "unit": "%"}, {"measurement": "Inhibitory Ratio of AP-1 Activation(%) Drug Concentration 10 μg/mL", "setting": "[3]", "value": 82.4, "unit": "%"}]}
{"compound": "O=C(Nc1cc(C(F)(F)F)cc(C(F)(F)F)c1)c1cc(Cl)ccc1O", "note": "[Compound No. 50, N-[3,5-Bis(trifluoromethyl)phenyl]-5-chloro-2-hydroxybenzamide]", "values": [{"measurement": "Inhibition Ratio of NFAT Activation(%) Drug Concentration 1 μM", "setting": "[1]", "value": 94.8, "unit": "%"}, {"measurement": "Inhibition Ratio of NFAT Activation(%) Drug Concentration 1 μg/mL", "setting": "[1]", "value": 99.5, "unit": "%"}, {"measurement": "Inhibitory Ratio of NFAT Activation(%) Drug Concentration 1 μM", "setting": "[4]; test compound 1 μM", "value": 70, "unit": "%"}, {"measurement": "Inhibitory Ratio of NFAT Activation(%) Drug Concentration 10 μM", "setting": "[4]; test compound 10 μM", "value": 100, "unit": "%"}, {"measurement": "Inhibitory Ratio of AP-1 Activation(%) Drug Concentration 1 μM", "setting": "[2]", "value": 90.7, "unit": "%"}, {"measurement": "Inhibitory Ratio of AP-1 Activation(%) Drug Concentration 1 μg/mL", "setting": "[2]", "value": 99.4, "unit": "%"}, {"measurement": "Inhibitory Ratio of AP-1 Activation(%) Drug Concentration 1 μg/mL", "setting": "[3]", "value": 42.4, "unit": "%"}, {"measurement": "Inhibitory Ratio of AP-1 Activation(%) Drug Concentration 10 μg/mL", "setting": "[3]", "value": 89.1, "unit": "%"}]}
{"compound": "O=C(Nc1cc(C(F)(F)F)cc(C(F)(F)F)c1)c1cc(C#Cc2ccccc2)ccc1O", "note": "[Compound No. 65, N-[3,5-bis(trifluoromethyl)phenyl]-2-hydroxy-5-(phenylethynyl)benzamide]", "values": [{"measurement": "Inhibitory Ratio of AP-1 Activation(%) Drug Concentration 10 μg/mL", "setting": "[3]", "value": 44.1, "unit": "%"}]}
{"compound": "CC(=O)Oc1ccccc1C(=O)Nc1cc(Cl)cc(Cl)c1", "note": "[compound 172, 2-acetoxy-N-(3,5-dichlorophenyl)benzamide]", "values": [{"measurement": "melting point", "value": "218 to 219", "unit": "°C"}]}
{"compound": "CCOC(=O)c1sc(NC(=O)c2cc(Br)ccc2O)nc1-c1ccccc1", "note": "[compound 209, 2-(5-bromo-2-hydroxybenzoyl)amino-4-phenylthiazole-5-carboxylic acid ethyl ester]", "values": [{"measurement": "Inhibitory Ratio of AP-1 Activation(%) Drug Concentration 1 μg/mL", "setting": "[3]", "value": 21.7, "unit": "%"}, {"measurement": "Inhibitory Ratio of AP-1 Activation(%) Drug Concentration 10 μg/mL", "setting": "[3]", "value": 55.3, "unit": "%"}]}
